Test results taken from PMC10938434, “Design, Synthesis, and Biological Effect Studies of Novel Benzofuran–Thiazolylhydrazone Derivatives as Monoamine Oxidase Inhibitors” (ACS Omega, 2024).
“And” between values parts separate entries of the source, which are not always exact repeats. Equal values may be shown once.

What was measured:
MAO-A enzyme = molecular target: T1, MAO-A enzyme (Homo sapiens, UniProt P21397); assay: MAO-A enzyme inhibition, fluorometric method; format: biochemical; settings: for IC50: 10^–3–10^–9 M concentrations; for selectivity: MAO isoform preferentially inhibited; for SI* selectivity index: SI = IC50MAO-B/IC50 MAO-A; for inhibition at 1000 µM: read-out: MAO-A % inhibition 10^–3 M; for inhibition at 100 µM: read-out: MAO-A % inhibition 10^–4 M
T1 sequence (P21397 1-527): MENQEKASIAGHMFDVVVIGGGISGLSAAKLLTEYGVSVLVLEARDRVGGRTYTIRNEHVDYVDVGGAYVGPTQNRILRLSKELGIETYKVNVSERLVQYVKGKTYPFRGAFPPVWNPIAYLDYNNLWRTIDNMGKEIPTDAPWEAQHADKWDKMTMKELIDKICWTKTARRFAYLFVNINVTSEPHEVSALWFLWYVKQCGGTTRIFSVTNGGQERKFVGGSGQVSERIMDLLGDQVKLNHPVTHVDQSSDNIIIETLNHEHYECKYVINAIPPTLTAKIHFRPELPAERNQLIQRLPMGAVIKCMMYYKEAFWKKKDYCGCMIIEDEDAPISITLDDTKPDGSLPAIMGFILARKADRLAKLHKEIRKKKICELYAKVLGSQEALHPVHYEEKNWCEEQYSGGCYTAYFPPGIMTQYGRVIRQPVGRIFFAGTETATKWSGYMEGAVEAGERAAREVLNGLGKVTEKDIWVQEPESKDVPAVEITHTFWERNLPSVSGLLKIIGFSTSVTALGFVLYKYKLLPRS
Description: (§1) Inhibition profiles of the synthesized compounds on MAO enzymes were investigated by the fluorometric method.
(§2) In every step of the method, distilled water obtained from a Millipor, a Milli-Q Synthesis A10 purification device, was used. Care was taken in preparing all of the solutions used fresh and to consume them within 1 week after preparation. A BioTek-Precision Power robotic pipetting system was used in the processes of separating the solutions prepared in the enzyme inhibition study, applying the test compounds to 96-well plates, and adding the enzyme–substrate solutions.

MAO-B enzyme = molecular target: T2, MAO-B enzyme (Homo sapiens, UniProt P27338); assay: MAO-B enzyme inhibition, fluorometric method; format: biochemical; settings: for inhibition at 1000 µM: 10^–3 M; for inhibition at 100 µM: read-out: MAO-B % inhibition 10^–4 M, 10^–4 M
T2 sequence (P27338 1-520): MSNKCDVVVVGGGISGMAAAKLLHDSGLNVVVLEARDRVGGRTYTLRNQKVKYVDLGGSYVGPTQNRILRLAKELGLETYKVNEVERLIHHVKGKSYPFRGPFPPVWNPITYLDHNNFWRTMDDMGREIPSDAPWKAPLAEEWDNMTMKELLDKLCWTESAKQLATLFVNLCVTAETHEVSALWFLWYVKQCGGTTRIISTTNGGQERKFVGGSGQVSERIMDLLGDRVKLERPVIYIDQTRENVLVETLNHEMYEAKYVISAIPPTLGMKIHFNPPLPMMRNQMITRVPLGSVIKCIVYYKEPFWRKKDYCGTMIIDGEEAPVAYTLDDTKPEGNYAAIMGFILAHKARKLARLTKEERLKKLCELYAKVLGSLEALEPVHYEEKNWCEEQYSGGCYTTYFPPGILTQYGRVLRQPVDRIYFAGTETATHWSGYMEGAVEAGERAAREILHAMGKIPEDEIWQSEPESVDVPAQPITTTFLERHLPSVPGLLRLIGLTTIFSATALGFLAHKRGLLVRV
Description: as §1
as §2, with “solutions. The creation, monitoring, and spectrophotometric measurements of the enzyme protocol were performed on a BioTek-Synergy H1 microplate reader.[41],[42]” for “solutions.”

[1] = In vitro BBB permeability assay (PAMPA); format: in vitro ADME
Cytotoxicity test (MTT) = format: cell-based, mouse; settings: mouse, NIH3T3 mouse embryo fibroblast cells, 24 h
Procedure: (§3) Just as important as the effectiveness of a compound is its side effect profile. For this purpose, cytotoxic effect tests of compound 2l were carried out. NIH3T3 (healthy mouse fibroblast cells) was used as the healthy cell in the experimental procedure.
(§4) 3-(4,5-Dimethylthiazol-2-yl)-2,5-diphenyl tetrazolium bromide (MTT) stock solution (5 mg mL^–1) was prepared by dissolving in phosphate buffer (PBS). The viable cell count of NIH/3T3 (mouse healthy embryo fibroblast cells) cells grown in appropriate medium and culture medium was characterized, and each cell line was seeded in 96-well plates with 3000 cells in each well, and the cells were incubated for 24 h for their adhesion. […] At the end of the incubation, the medium in each well was removed and 100 μL of DMSO was added as a solvent and the absorbance values were read in an enzyme-linked immunosorbent assay (ELISA) device (Bio Tek Cytation3 multimode microplate reader) at a wavelength of 540 nm, with eight wells in each group. […] The obtained absorbance values give the metabolic activities of the cells, and these values are associated with the number of living cells. The results are determined as % inhibition values according to the formula given, and IC50 values are calculated from these values by using the Excel program.[52]−[54]

[2] = system: NIH3T3 (healthy mouse fibroblast cells); assay: Cytotoxicity test (MTT); format: cell-based
Procedure: as §3, §4

IC50 (MAO-A enzyme)	selectivity (MAO-A enzyme)	SI* selectivity index (MAO-A enzyme)	inhibition at 1000 µM (MAO-A enzyme)	inhibition at 100 µM (MAO-A enzyme)	IC50 (MAO-B enzyme)	inhibition at 1000 µM (MAO-B enzyme)	inhibition at 100 µM (MAO-B enzyme)	BBB permeability (in words) [1]	Compound	IC50 at 24 h (Cytotoxicity test (MTT))	cytotoxic effect result [2]
80 ± 10 nM	MAO-A	>9.91	90.4 ± 1.66%	83.7 ± 1.09%	800 ± 30 nM	85.2 ± 1.01%	> 50%	–	C(=NNc1nc(-c2ccccc2)cs1)c1cc2ccccc2o1 [2a, 2-(2-(Benzofuran-2-ylmethylene)hydrazinyl)-4-phenylthiazole]	–	–
210 ± 10 nM	MAO-A	>458.72	87 ± 1.92%	78.2 ± 1.44%	> 100000 nM	64.5 ± 1.12%	47.1 ± 0.85%	–	Cc1ccc(-c2csc(NN=Cc3cc4ccccc4o3)n2)cc1 [2b, 2-(2-(Benzofuran-2-ylmethylene)hydrazinyl)-4-(p-tolyl)thiazole]	–	–
310 ± 10 nM	MAO-A	>326.79	80.8 ± 1.69%	71 ± 1.18%	> 100000 nM	69 ± 1.05%	40.7 ± 0.98%	–	N#Cc1ccc(-c2csc(NN=Cc3cc4ccccc4o3)n2)cc1 [2d, 4-(2-(2-(Benzofuran-2-ylmethylene)hydrazinyl)thiazol-4-yl)benzonitrile]	–	–
420 ± 20 nM	MAO-A	>2.53	86.8 ± 1.6%	78.5 ± 1.09%	1060 ± 50 nM	70.2 ± 1.36%	> 50%	–	Brc1ccc(-c2csc(NN=Cc3cc4ccccc4o3)n2)cc1 [2h, 2-(2-(Benzofuran-2-ylmethylene)hydrazinyl)-4-(4-bromophenyl)thiazole]	–	–
430 ± 20 nM	MAO-A	>3.93	84.2 ± 1.35%	71.3 ± 1.86%	1690 ± 80 nM	73.5 ± 1.49%	> 50%	–	Cc1ccc(-c2csc(NN=Cc3cc4ccccc4o3)n2)c(C)c1 [2i, 2-(2-(Benzofuran-2-ylmethylene)hydrazinyl)-4-(2,4-dimethylphenyl)thiazole]	–	–
130 ± 10 nM	MAO-A	>787.40	89.9 ± 1.76%	73.7 ± 0.83%	> 100000 nM	74.5 ± 1.4%	40.7 ± 0.95%	–	Fc1ccc(-c2csc(NN=Cc3cc4ccccc4o3)n2)c(F)c1 [2k, 2-(2-(Benzofuran-2-ylmethylene)hydrazinyl)-4-(2,4-difluorophenyl)thiazole]	–	–
73 nM and 70 nM	MAO-A	>10.30	94 ± 1.65%	91.4 ± 1.36%	750 ± 30 nM	86.6 ± 1.29%	–	high BBB permeability	Clc1ccc(-c2csc(NN=Cc3cc4ccccc4o3)n2)c(Cl)c1 [2l, 2-(2-(Benzofuran-2-ylmethylene)hydrazinyl)-4-(2,4-dichlorophenyl)thiazole]	> 100000 nM	nontoxic

Second part, the compound before the results:

Compound	IC50 (MAO-A enzyme)	selectivity (MAO-A enzyme)	SI* selectivity index (MAO-A enzyme)	inhibition at 1000 µM (MAO-A enzyme)	inhibition at 100 µM (MAO-A enzyme)	IC50 (MAO-B enzyme)	inhibition at 1000 µM (MAO-B enzyme)	inhibition at 100 µM (MAO-B enzyme)	BBB permeability (in words) [1]	IC50 at 24 h (Cytotoxicity test (MTT))	cytotoxic effect result [2]
COc1ccc(-c2csc(NN=Cc3cc4ccccc4o3)n2)cc1 [2c, 2-(2-(Benzofuran-2-ylmethylene)hydrazinyl)-4-(4-methoxyphenyl)thiazole]	180 ± 10 nM	MAO-A	>568.18	85.2 ± 2.03%	72.8 ± 1.36%	> 100000 nM	55.8 ± 0.96%	42.8 ± 0.89%	–	–	–
O=[N+]([O-])c1ccc(-c2csc(NN=Cc3cc4ccccc4o3)n2)cc1 [2e, 2-(2-(Benzofuran-2-ylmethylene)hydrazinyl)-4-(4-nitrophenyl)thiazole]	260 ± 10 nM	MAO-A	>386.10	83.2 ± 1.65%	69.3 ± 0.9%	> 100000 nM	72.1 ± 1.4%	48.3 ± 0.86%	–	–	–
Fc1ccc(-c2csc(NN=Cc3cc4ccccc4o3)n2)cc1 [2f, 2-(2-(Benzofuran-2-ylmethylene)hydrazinyl)-4-(4-fluorophenyl)thiazole]	340 ± 10 nM	MAO-A	>4.06	85.7 ± 1.48%	73.6 ± 1.16%	1370 ± 60 nM	82.7 ± 1.66%	> 50%	–	–	–
Clc1ccc(-c2csc(NN=Cc3cc4ccccc4o3)n2)cc1 [2g, 2-(2-(Benzofuran-2-ylmethylene)hydrazinyl)-4-(4-chlorophenyl)thiazole]	90 ± 10 nM	MAO-A	>1075.27	79.5 ± 1.06%	68.7 ± 0.94%	> 100000 nM	68.4 ± 0.97%	45.2 ± 0.86%	–	–	–
COc1ccc(-c2csc(NN=Cc3cc4ccccc4o3)n2)c(OC)c1 [2j, 2-(2-(Benzofuran-2-ylmethylene)hydrazinyl)-4-(2,4-dimethoxyphenyl)thiazole]	140 ± 10 nM	MAO-A	>719.42	87.5 ± 1.8%	68.4 ± 1.15%	> 100000 nM	67.9 ± 1.3%	41.5 ± 0.75%	–	–	–
O=C(NCCN1CCOCC1)c1ccc(Cl)cc1 [Moclobemid, moclobemide, reference compound]	–	–	–	94.1 ± 2.76%	82.1 ± 2.69%	–	–	–	–	–	–
